The values that follow are results of earlier work, collected in patent US20030206958A1, “Chitosan biopolymer for the topical delivery of active agents” (priority 2002, published 2003).

Structures are written as SMILES.

Take `CC1=C(/C=C/C(C)=C/C=C/C(C)=C/C(=O)O)C(C)(C)CCC1` [tretinoin, all-trans retinoic acid]: the Patients with irritation (topical (Gilchrest, 1997)) is 90 % of patients. Also, where the note is “topical (Stam-Posthuma et al., 1998)”, the “Patients discontinuing treatment because of irritation” value is reported as ~50 % of patients.
